Patent US6737383B1, “Herbicidal oxadiazolidines” (priority 1999, dated 2004)

Experiments:
[1] = system: bedstraw; test: Test B pre/postemergence bedstraw; format: in vivo, Galium aparine
How it was run: (§1)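 Response is a visual 0-to-10 score relative to untreated plants, where 0 means no effect and 10 means complete control, taken twelve to sixteen days after application. Treatments went onto soil at planting and onto foliage of 1- to 4-leaf plants, using a surfactant-containing non-phytotoxic solvent.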

[2] = system: blackgrass; test: Test B pre/postemergence blackgrass; format: in vivo, Alopecurus myosuroides
How it was run: as §1

[3] = system: surinam grass; test: Test B pre/postemergence surinam grass; format: in vivo, Brachiaria decumbens
How it was run: as §1

[4] = system: cocklebur; test: Test B pre/postemergence cocklebur; format: in vivo, Xanthium strumarium
How it was run: as §1

[5] = system: corn; test: Test B pre/postemergence corn; format: in vivo, Zea mays
How it was run: as §1

[6] = system: crabgrass; test: Test B pre/postemergence crabgrass; format: in vivo, Digitaria sanguinalis
How it was run: as §1

[7] = system: giant foxtail; test: Test B pre/postemergence giant foxtail; format: in vivo, Setaria faberii
How it was run: as §1

[8] = system: morningglory; test: Test B pre/postemergence morningglory; format: in vivo, Ipomoea hederacea
How it was run: as §1

[9] = system: pigweed; test: Test B pre/postemergence pigweed; format: in vivo, Amaranthus retroflexus
How it was run: as §1

[10] = system: rape; test: Test B pre/postemergence rape; format: in vivo, Brassica napus
How it was run: as §1

[11] = system: soybean; test: Test B pre/postemergence soybean; format: in vivo, Glycine max
How it was run: as §1

[12] = system: sugar beet; test: Test B pre/postemergence sugar beet; format: in vivo, Beta vulgaris
How it was run: as §1

[13] = system: velvetleaf; test: Test B pre/postemergence velvetleaf; format: in vivo, Abutilon theophrasti
How it was run: as §1

[14] = system: wheat; test: Test B pre/postemergence wheat; format: in vivo, Triticum aestivum
How it was run: as §1

[15] = system: wild oat; test: Test B pre/postemergence wild oat; format: in vivo, Avena fatua
How it was run: as §1

[16] = system: purple nutsedge; test: Test B pre/postemergence purple nutsedge; format: in vivo, Cyperus rotundus
How it was run: as §1

[17] = Postemergence, Rate 125 g/ha, scale of 0 to 10 where 0 is no effect and 10 is complete control
[18] = Postemergence, Rate 500 g/ha, scale 0 (no effect) to 10 (complete control)
[19] = Preemergence, Rate 250 g/ha, scale 0 (no effect) to 10 (complete control)
[20] = Rate 62 g/ha, Preemergence, scale 0 to 10
[21] = Rate 125 g/ha, Preemergence, scale 0 to 10 (0 no effect, 10 complete control)
[22] = Rate 500 g/ha, Preemergence, scale 0 to 10 (0 no effect, 10 complete control)
[23] = Postemergence, Rate 62 g/ha, scale 0 to 10, 0 is no effect, 10 is complete control
[24] = Rate 250 g/ha, Postemergence, scale 0 to 10, 0 is no effect, 10 is complete control

C#CC(C)n1c(=O)on(C(=O)N(c2ccc(F)cc2)C(C)C)c1=O (stereo not shown) [Compound 763]
5: Plant response rating, Blackgrass [2, 23] | Blackgrass plant response rating [2, 17] | Blackgrass plant response rating [2, 18] | Blackgrass plant response rating [2, 24] | B. signalgrass plant response rating [3, 24] | B. signalgrass plant response rating ([3]; Rate 500 g/ha, Postemergence, scale 0 to 10, 0 is no effect, 10 is complete control) | Crabgrass plant response rating [6, 17] | Morningglory plant response rating [8, 22] | Rape plant response rating [10, 21] | Soybean plant response rating [11, 18] | Wheat plant response rating [14, 19] | Nutsedge plant response rating [16, 22]
10: Blackgrass plant response rating [2, 22] | Crabgrass plant response rating [6, 19] | Redroot pigweed plant response rating [9, 19] | Redroot pigweed plant response rating [9, 22]
8: Bedstraw plant response rating [1, 22] | Blackgrass plant response rating [2, 20] | B. signalgrass plant response rating [3, 22] | Crabgrass plant response rating [6, 24] | Giant foxtail plant response rating [7, 17] | Redroot pigweed plant response rating [9, 18] | Redroot pigweed plant response rating [9, 20] | Wild oats plant response rating [15, 21]
2: Corn plant response rating [5, 18] | Plant response rating, Crabgrass [6, 23] | Plant response rating, Morningglory [8, 23] | Plant response rating, Soybean [11, 23] | Sugarbeets plant response rating [12, 24] | Velvetleaf plant response rating [13, 18] | Wild oats plant response rating [15, 20]
3: B. signalgrass plant response rating [3, 17] | Cocklebur plant response rating [4, 18] | Redroot pigweed plant response rating [9, 24] | Rape plant response rating [10, 18] | Soybean plant response rating [11, 24] | Sugarbeets plant response rating [12, 19] | Velvetleaf plant response rating [13, 22] | Wheat plant response rating [14, 18] | Nutsedge plant response rating [16, 24]
6: Bedstraw plant response rating [1, 21] | Plant response rating, Giant foxtail [7, 23] | Rape plant response rating [10, 19] | Sugarbeets plant response rating [12, 22] | Nutsedge plant response rating [16, 18]
7: Bedstraw plant response rating [1, 19] | Morningglory plant response rating [8, 17] | Morningglory plant response rating [8, 18] | Morningglory plant response rating [8, 24] | Wheat plant response rating [14, 22]
9: Blackgrass plant response rating [2, 19] | Blackgrass plant response rating [2, 21] | B. signalgrass plant response rating [3, 19] | B. signalgrass plant response rating [3, 21] | Crabgrass plant response rating [6, 18] | Crabgrass plant response rating [6, 20] | Crabgrass plant response rating [6, 21] | Crabgrass plant response rating [6, 22] | Giant foxtail plant response rating [7, 18] | Giant foxtail plant response rating [7, 19] | Giant foxtail plant response rating [7, 20] | Giant foxtail plant response rating [7, 21] | Giant foxtail plant response rating [7, 24] | Giant foxtail plant response rating [7, 22] | Redroot pigweed plant response rating [9, 21] | Rape plant response rating [10, 22] | Wild oats plant response rating [15, 19] | Wild oats plant response rating [15, 22]
4: Bedstraw plant response rating [1, 18] | Sugarbeets plant response rating [12, 18] | Wheat plant response rating [14, 24]
0: Bedstraw plant response rating [1, 17] | Bedstraw plant response rating [1, 20] | Plant response rating, B. signalgrass [3, 23] | B. signalgrass plant response rating ([3]; Preemergence, Rate 62 g/ha, scale of 0 to 10 where 0 is no effect and 10 is complete control) | Plant response rating, Cocklebur [4, 23] | Cocklebur plant response rating [4, 17] | Cocklebur plant response rating [4, 19] | Cocklebur plant response rating [4, 20] | Cocklebur plant response rating [4, 21] | Cocklebur plant response rating [4, 22] | Plant response rating, Corn [5, 23] | Corn plant response rating [5, 17] | Corn plant response rating [5, 19] | Corn plant response rating [5, 20] | Corn plant response rating [5, 21] | Corn plant response rating [5, 24] | Corn plant response rating [5, 22] | Morningglory plant response rating [8, 19] | Morningglory plant response rating [8, 20] | Morningglory plant response rating [8, 21] | Plant response rating, Redroot pigweed [9, 23] | Redroot pigweed plant response rating [9, 17] | Plant response rating, Rape [10, 23] | Rape plant response rating [10, 17] | Rape plant response rating [10, 20] | Rape plant response rating [10, 24] | Soybean plant response rating [11, 19] | Soybean plant response rating [11, 20] | Soybean plant response rating [11, 21] | Soybean plant response rating [11, 22] | Plant response rating, Sugarbeets [12, 23] | Sugarbeets plant response rating [12, 20] | Sugarbeets plant response rating [12, 21] | Plant response rating, Velvetleaf [13, 23] | Velvetleaf plant response rating [13, 20] | Velvetleaf plant response rating [13, 24] | Plant response rating, Wheat [14, 23] | Wheat plant response rating [14, 20] | Wheat plant response rating [14, 21] | Plant response rating, Wild oats [15, 23] | Plant response rating, Nutsedge [16, 23] | Nutsedge plant response rating [16, 17] | Nutsedge plant response rating [16, 20]
1: Cocklebur plant response rating [4, 24] | Velvetleaf plant response rating [13, 19] | Velvetleaf plant response rating [13, 21] | Wild oats plant response rating [15, 18]
